Values quoted from earlier work as cited in patent publication US20230398069A1, “ETOPOSIDE TONIRIBATE FORMULATION” (CELLACT PHARMA GMBH, priority 2020, published 2023).

Settings: API

solubility in water: poorly soluble in water
stability at acidic and basic pH: unstable at acidic and basic pH
Structure (SMILES): COc1cc([C@@H]2c3cc4c(cc3[C@@H](O[C@@H]3O[C@@H]5CO[C@@H](C)O[C@H]5[C@@H](O)[C@H]3O)[C@H]3COC(=O)[C@H]23)OCO4)cc(OC)c1OC(=O)OCC1COC(C)(C)O1 (some centres unmarked) [Etoposide toniribate]
